Active and inactive are the calls of the source.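 Rule for the calls: active = mean IC50 below 800 nM; inactive = the rest.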
tested on: Jurkat NF-kB luciferase, PMA/ionomycin-induced, luminescence 16 h; assay: inhibitors of PMA/ionomycin-driven NF-kB luciferase in Jurkat – cell-based, luminescence, set 2, B-cell antigen receptor NF-kB inhibitors, SAR follow-up (AID 504515)

Row | SMILES | IC50
1 | CCCCOc1ccc(-c2nc(CSCC(=O)O)c(C)o2)cc1 | 70 nM
2 | C#CCNC(=O)CSCc1nc(-c2ccc(OCC)cc2)oc1C | > 800 nM (inactive)
3 | CCCOc1ccc(-c2nc(CSCC(=O)NCc3ccco3)c(C)o2)cc1 | > 800 nM (inactive)
4 | CCCOc1ccc(-c2nc(CSCC(=O)NC3CC3)c(C)o2)cc1 | > 800 nM (inactive)
5 | CC(C)c1ccc(-c2noc(CCC(=O)NC3CC3)n2)cc1 | > 800 nM (inactive)
6 | CCCCc1ccc(-c2noc(CCC(=O)NC)n2)cc1 | > 800 nM (inactive)
7 | CCOc1ccc(-c2nc(CSCC(N)=O)c(C)o2)cc1 | > 800 nM (inactive)
8 | CCOc1ccc(-c2nc(CSCC(=O)O)c(C)o2)cc1 | 30 nM
9 | Cc1oc(-c2ccc(OC(F)(F)F)cc2)nc1CSCC(=O)O | 290 nM
10 | CCCOc1ccc(-c2nc(CSCC(=O)O)c(C)o2)cc1 | 30 nM
11 | CCCCc1ccc(-c2noc(CCC(=O)NCC)n2)cc1 | > 800 nM (inactive)

Reference: PubChem BioAssay AID504515 (Sanford-Burnham Center for Chemical Genomics, 2011)
